The IC50 is the point on the concentration scale where inhibition reaches its midpoint.

Results on one molecule are retold here after US20220372040A1, “METTL3 MODULATORS” (Accent Therapeutics, Inc., priority 2020, published 2022).

Some results are limits rather than exact numbers.

Holding throughout (type): biochemical
Experiment [1] concerns the target PRMT5-MEP50 (Homo sapiens, UniProt O14744). The experiment can be described thus: PRMT5 assay (3H-SAM flashplate scintillation). The following applies: PRMT5-MEP50 2.5 nM, histone H4 peptide 100 nM, 3H-SAM 250 nM, 60 min. The method, boiled down:
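PRMT5-MEP50 (2.5 nM final) preincubated 5 min with compound, then reacted 60 min at ambient temperature with 100 nM biotinylated N-acetyl histone H4 peptide and 250 nM 3H-SAM in 20 mM Tris-HCl pH 8.0, 1 mM DTT, 0.01% Tween. Quenched with 15 μM cold SAM; methylated peptide captured on streptavidin flashplates, scintillation counted.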

Experiment [2] addresses METTL1/WDR4 (Homo sapiens, UniProt Q9UBP6). The experiment can be described thus: METTL1 assay (3H-SAM flashplate scintillation). The following applies: METTL1/WDR4 6.25 nM, RNA 25 nM, 3H-SAM 60 nM, 20 min; read-out: METTL1 IC50. The method, boiled down:
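Radiometric methyltransfer by METTL1/WDR4 (6.25 nM f.c., 5 min preincubation) at ambient temperature in HEPES pH 7.5, KCl, MgCl2, DTT; started with 25 nM 3′-biotinylated RNA and 60 nM 3H-SAM, run 20 min, quenched with 15 μM cold SAM. Product captured on streptavidin flashplates (2 h, 25° C), counted by scintillation.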

Experiment [3] has as its target T1, METTL16 (Homo sapiens, UniProt Q86W50).
T1 sequence (Q86W50 1-562): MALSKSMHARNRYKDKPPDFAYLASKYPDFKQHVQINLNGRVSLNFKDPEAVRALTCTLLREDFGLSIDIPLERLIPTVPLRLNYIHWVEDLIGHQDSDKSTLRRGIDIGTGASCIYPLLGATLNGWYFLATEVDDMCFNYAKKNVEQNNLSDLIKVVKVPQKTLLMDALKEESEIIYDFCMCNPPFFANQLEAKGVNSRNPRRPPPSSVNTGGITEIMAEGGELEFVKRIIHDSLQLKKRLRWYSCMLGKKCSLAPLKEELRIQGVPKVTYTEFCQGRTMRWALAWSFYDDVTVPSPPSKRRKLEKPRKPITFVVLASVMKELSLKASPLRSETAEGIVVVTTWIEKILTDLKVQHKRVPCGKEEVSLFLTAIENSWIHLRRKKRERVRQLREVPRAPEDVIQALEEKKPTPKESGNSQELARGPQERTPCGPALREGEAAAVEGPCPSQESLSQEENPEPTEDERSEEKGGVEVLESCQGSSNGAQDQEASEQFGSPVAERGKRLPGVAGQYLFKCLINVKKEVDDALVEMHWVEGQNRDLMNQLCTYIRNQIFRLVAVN
The experiment can be described thus: METTL16 assay (3H-SAM flashplate scintillation). The following applies: METTL16 100 nM, RNA 50 nM, 3H-SAM 200 nM, SAM 800 nM, 20 min. The method, boiled down:
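Radiometric methyltransferase reaction at ambient temperature in 20 mM HEPES pH 7.5, 50 mM KCl, 1 mM DTT, with 100 nM enzyme preincubated 5 min with compound. It was started with 50 nM 3′-biotinylated RNA, 200 nM 3H-SAM plus 800 nM cold SAM, run 20 min, then quenched with excess cold SAM. Product was captured on streptavidin flashplates and scintillation-counted.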

The target of experiment [4] is METTL3/METTL14 (Homo sapiens, UniProt Q86U44). Briefly: METTL3-14 standard enzyme assay (3H-SAM flashplate scintillation). The following applies: METTL3/METTL14 2.5 nM, RNA 100 nM, 3H-SAM 100 nM, 30 min. Put shortly:
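METTL3/METTL14 (2.5 nM final) preincubated 5 min with compound in 20 mM HEPES pH 7.5, 50 mM KCl, 250 μM MgCl2, 1 mM DTT, ambient temperature; started with 100 nM 3′-biotinylated RNA (UCUGGACUAAA) and 100 nM 3H-SAM. After 30 min, quenched with 15 μM cold SAM; methylated RNA captured on streptavidin flashplates and counted by scintillation.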

Chain of METTL1/WDR4 (Q9UBP6 whole entry, species assumed): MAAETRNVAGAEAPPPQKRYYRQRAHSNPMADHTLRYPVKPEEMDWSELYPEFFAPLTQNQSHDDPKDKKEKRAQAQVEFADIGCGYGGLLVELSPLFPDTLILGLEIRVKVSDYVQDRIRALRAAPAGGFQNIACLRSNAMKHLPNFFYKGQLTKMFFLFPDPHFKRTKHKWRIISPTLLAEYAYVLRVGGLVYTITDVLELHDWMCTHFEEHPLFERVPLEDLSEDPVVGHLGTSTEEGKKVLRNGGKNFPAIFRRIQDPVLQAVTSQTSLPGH
Chain of METTL1/WDR4 (P57081 whole entry partner, species assumed): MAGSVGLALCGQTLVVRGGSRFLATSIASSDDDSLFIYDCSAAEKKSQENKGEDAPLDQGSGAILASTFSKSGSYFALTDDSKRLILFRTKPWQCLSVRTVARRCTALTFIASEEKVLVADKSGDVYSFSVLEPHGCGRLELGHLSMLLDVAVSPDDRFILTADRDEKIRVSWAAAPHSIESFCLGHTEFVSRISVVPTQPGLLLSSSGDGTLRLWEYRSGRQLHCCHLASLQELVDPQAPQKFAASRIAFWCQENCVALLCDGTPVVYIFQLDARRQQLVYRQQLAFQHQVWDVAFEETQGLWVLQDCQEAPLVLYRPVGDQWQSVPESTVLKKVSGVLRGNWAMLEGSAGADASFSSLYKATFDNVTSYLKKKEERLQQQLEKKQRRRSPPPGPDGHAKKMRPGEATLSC
Chain of PRMT5-MEP50 (O14744 whole entry): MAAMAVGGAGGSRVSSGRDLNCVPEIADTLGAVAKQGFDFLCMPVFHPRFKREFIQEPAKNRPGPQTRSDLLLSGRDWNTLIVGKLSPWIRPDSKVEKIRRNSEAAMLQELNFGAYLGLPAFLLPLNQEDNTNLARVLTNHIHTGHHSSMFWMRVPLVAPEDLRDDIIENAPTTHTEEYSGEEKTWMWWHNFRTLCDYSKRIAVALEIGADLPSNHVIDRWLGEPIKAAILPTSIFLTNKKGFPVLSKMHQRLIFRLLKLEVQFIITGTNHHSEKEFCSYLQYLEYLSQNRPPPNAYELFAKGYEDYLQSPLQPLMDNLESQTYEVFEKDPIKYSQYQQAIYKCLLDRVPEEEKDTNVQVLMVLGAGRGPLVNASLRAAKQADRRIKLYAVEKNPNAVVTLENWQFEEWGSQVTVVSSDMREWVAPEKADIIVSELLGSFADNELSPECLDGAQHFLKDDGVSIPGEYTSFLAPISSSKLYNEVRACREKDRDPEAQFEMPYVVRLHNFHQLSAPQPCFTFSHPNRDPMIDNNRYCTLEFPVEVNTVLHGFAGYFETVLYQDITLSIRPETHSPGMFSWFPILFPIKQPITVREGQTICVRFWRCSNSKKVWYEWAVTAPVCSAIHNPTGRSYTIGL
Chain of PRMT5-MEP50 (Q9BQA1 whole entry partner): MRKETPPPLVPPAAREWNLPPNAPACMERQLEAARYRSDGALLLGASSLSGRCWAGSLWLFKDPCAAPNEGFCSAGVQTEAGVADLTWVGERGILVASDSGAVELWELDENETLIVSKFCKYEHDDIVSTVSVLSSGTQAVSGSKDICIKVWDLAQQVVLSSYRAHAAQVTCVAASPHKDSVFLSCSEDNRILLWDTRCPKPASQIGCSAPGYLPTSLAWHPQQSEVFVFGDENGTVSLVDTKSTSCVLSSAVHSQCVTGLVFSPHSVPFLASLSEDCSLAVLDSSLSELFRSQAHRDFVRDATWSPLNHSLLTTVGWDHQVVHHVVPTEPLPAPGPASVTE
Chain of METTL3/METTL14 (Q86U44 whole entry, species assumed): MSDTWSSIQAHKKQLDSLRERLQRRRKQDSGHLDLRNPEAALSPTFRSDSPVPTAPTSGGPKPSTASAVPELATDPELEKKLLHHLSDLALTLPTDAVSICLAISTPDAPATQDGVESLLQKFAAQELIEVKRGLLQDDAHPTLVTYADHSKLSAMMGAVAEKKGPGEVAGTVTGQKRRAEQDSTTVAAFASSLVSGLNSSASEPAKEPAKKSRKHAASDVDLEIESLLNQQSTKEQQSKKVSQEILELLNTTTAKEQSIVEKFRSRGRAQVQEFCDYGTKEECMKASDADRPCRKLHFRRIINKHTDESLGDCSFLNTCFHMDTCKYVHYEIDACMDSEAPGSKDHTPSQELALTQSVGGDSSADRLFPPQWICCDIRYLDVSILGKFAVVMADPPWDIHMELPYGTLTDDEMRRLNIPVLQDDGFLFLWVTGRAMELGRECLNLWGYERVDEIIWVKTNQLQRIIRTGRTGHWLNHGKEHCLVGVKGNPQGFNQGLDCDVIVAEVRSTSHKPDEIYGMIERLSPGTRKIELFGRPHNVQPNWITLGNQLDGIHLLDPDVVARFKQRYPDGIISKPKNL
Chain of METTL3/METTL14 (Q9HCE5 whole entry partner, species assumed): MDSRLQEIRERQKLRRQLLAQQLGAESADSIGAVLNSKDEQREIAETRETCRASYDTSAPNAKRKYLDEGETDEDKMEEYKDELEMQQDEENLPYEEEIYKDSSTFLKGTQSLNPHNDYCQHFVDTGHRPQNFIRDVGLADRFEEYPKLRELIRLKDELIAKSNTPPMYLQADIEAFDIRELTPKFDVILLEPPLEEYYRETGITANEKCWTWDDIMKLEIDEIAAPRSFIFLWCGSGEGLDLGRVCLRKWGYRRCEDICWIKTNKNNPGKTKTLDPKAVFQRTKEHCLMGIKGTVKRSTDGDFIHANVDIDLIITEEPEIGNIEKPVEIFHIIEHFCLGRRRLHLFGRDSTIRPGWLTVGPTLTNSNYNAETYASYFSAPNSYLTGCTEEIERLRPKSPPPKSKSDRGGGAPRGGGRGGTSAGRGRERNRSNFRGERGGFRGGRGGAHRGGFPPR

Take `CNc1ccc2ccc(OCc3cc(CO)cc(-n4cc(Cl)c5c(N)ncnc54)c3)cc2n1` [Compound I-34]: the IC50 is above 1000 nM in experiment [1], above 1000 nM in experiment [2], above 1000 nM in experiment [3] and below 10 nM in experiment [4].
